Data taken from article PMC7140498, “Predicting liver cytosol stability of small molecules” (Journal of Cheminformatics, 2020).

Test: Metabolic stability assay (substrate depletion) in human liver cytosol fractions
Conditions: both, human, cytosol, pH 7.4, t1/2 (mean ± SD) (Human cytosol), control compounds, 17 plates, 1 μM, 2 mg/mL cytosol, pH 7.4, 37 °C
Experimental: (§1) Our assay (384-well format) consisted of two parts; a robotic system for incubation and sample clean up and an integrated LC/MS method to calculate the percent remaining of parent compound. Briefly, each reaction mixture (110 μL) consisted of a test compound (1 μM) and either human or mouse cytosol fractions (2 mg/mL) in phosphate buffer (100 mM) at pH 7.4. Samples were incubated in 384-well plates at 37 °C for 0, 5, 10, 15, 30 and 60 min. Sample analysis and t1/2 calculations were performed using a previously described method [15]. […] A set of control compounds for low and high cytosolic stability were routinely run in each plate.
With `Cc1cc(=O)n(-c2ccccc2)n1C` [Antipyrine, reference compound] the half-life at 1 μM was greater than 2 h.

Same assay, conditions: both, human, cytosol, pH 7.4, t1/2 category (Human cytosol), control compounds, 17 plates
`Cc1cc(=O)n(-c2ccccc2)n1C` [Antipyrine, reference compound] gave a half-life at 1 μM greater than 0.5 h.

Same assay, conditions: both, human, liver cytosol fractions, pH 7.4, t1/2 [min] (Left), external validation, sheet Human, left compound
For `N#Cc1ccc(CN2CC(Oc3ccc(F)cc3F)C2)cc1` [N#Cc1ccc(CN2CC(Oc3ccc(F)cc3F)C2)cc1], the half-life at 1 μM was 1.05 h. With `CC(=O)N1CCC(Cc2ccc(C(=O)NC3CC3)cc2)CC1` [CC(=O)N1CCC(Cc2ccc(C(=O)NC3CC3)cc2)CC1] the half-life at 1 μM was 1.33 h. In the case of `N#Cc1ccc(C(=O)N2CCCOCCNC(=O)CC2)cc1` [N#Cc1ccc(C(=O)N2CCCOCCNC(=O)CC2)cc1], the half-life at 1 μM is reported as greater than 2 h.

Same assay, conditions: both, human, liver cytosol fractions, pH 7.4, t1/2 [min] (Right), external validation, sheet Human, right compound
Work on `CCOc1cc(=O)n2c(c1C(=O)Nc1ccc(S(N)(=O)=O)cc1)CCCC2` yielded a half-life at 1 μM greater than 2 h. `Cc1noc(-c2cn(C3CCN(C(=O)c4ccccc4)C3)nn2)n1` (centres unmarked) showed a half-life at 1 μM greater than 2 h.

Same assay, conditions: both, human, liver cytosol fractions, pH 7.4, t1/2 [min] (left), in-house library pair, human transforms, left compound
For `N#Cc1ccc(CN2CC(Oc3ccc(F)cc3F)C2)cc1` [N#Cc1ccc(CN2CC(Oc3ccc(F)cc3F)C2)cc1], the half-life at 1 μM was 1.05 h. Work on `CC(=O)N1CCC(Cc2ccc(C(=O)NC3CC3)cc2)CC1` [CC(=O)N1CCC(Cc2ccc(C(=O)NC3CC3)cc2)CC1] yielded a half-life at 1 μM of 1.33 h. For `N#Cc1ccc(C(=O)N2CCCOCCNC(=O)CC2)cc1` [N#Cc1ccc(C(=O)N2CCCOCCNC(=O)CC2)cc1], the half-life at 1 μM was greater than 2 h.

Same assay, conditions: external validation, sheet Human, left compound
In the case of `O=c1c2nc(Nc3cccc(F)c3)ccc2ncn1-c1ccccc1` [O=c1c2nc(Nc3cccc(F)c3)ccc2ncn1-c1ccccc1], the “t1/2 [min] (Left)” value is reported as 93.9 min. In the case of `Cn1cnc2ccc(Nc3cccc(F)c3)nc2c1=O` [Cn1cnc2ccc(Nc3cccc(F)c3)nc2c1=O], the “t1/2 [min] (Left)” value is reported as 115.2 min. With `Fc1cccc(-c2noc(-c3nc(-c4ccncc4)no3)n2)c1` [Fc1cccc(-c2noc(-c3nc(-c4ccncc4)no3)n2)c1] the “t1/2 [min] (Left)” value was 26.4 min. In the case of `Fc1cccc(-c2c[nH]c([C@@H]3COCCN3Cc3c[nH]cn3)n2)c1`, the “t1/2 [min] (Left)” value is reported as 59.3 min. In the case of `CNC(=O)[C@@H]1CN(C(=O)c2cccc(C#N)c2)C[C@H]1COC`, the “t1/2 [min] (Left)” value is reported as 86.6 min. For `N#Cc1ccccc1CN1CCC2(CC1)CC(O)CCO2` (centres unmarked) [N#Cc1ccccc1CN1CCC2(CC1)CC(O)CCO2], the “t1/2 [min] (Left)” value was 80.3 min.

Test: not given
Set-up: method as in PMID 20421447
Conditions: development discontinued in 2008; cited from earlier work
For `Cn1cc(-c2ccc3nnc(Sc4ccc5ncccc5c4)n3n2)cn1` [SGX523], the “toxicity reported in development” value is given as “dose-limiting renal toxicity”.

Test: not given
Conditions: human, cytosol
For `O=C(c1ccc(-c2ncc3cnc(-c4cccc(F)c4)cn23)cc1)N1CCc2cccnc21`, the “t1/2 [min] (Left)” value was 17.3 min. For `O=c1cc(N2CCOCC2)oc2c(-c3cccc(F)c3)nccc12` [O=c1cc(N2CCOCC2)oc2c(-c3cccc(F)c3)nccc12], the “t1/2 [min] (Left)” value was greater than 120 min.

Test: Metabolic stability assay (substrate depletion) in mouse liver cytosol fractions
Conditions: external validation, sheet Mouse, left compound
Experimental: as §1
With `OCC1(CN2CCCC2)CCN(Cc2ccc(Cl)cc2)CC1` [OCC1(CN2CCCC2)CCN(Cc2ccc(Cl)cc2)CC1] the “t1/2 [min] (Left)” value was 54.48 min. For `Cc1cccc(-c2noc([C@@H]3C[C@@H](O)CN3Cc3ccc(Cl)cc3)n2)c1`, the “t1/2 [min] (Left)” value was 23.64 min. For `CN1c2cc(C(=O)Nc3ccc(Cl)cc3)ccc2C(=O)N2CCCCCC21` (centres unmarked), the “t1/2 [min] (Left)” value was 63.37 min. In the case of `CCOc1cc(=O)n2c(c1C(=O)Nc1ccc(Cl)cc1)CCCC2`, the “t1/2 [min] (Left)” value is reported as 94.08 min. For `CN(C)c1nc2c(c(=O)[nH]1)CCN(Cc1ccc(Cl)cc1)CC2`, the “t1/2 [min] (Left)” value was 114.48 min. With `O=C1[C@H]2CN(Cc3ccc(Cl)cc3)C[C@H]2C(=O)N1Cc1ccc2c(c1)OCO2` the “t1/2 [min] (Left)” value was 66.66 min. In the case of `CN(Cc1cccnc1)c1nc2c(c(=O)[nH]1)CCN(Cc1ccc(Cl)cc1)CC2`, the “t1/2 [min] (Left)” value is reported as 74.11 min. With `O=C(Nc1cccc(-c2nnc3n2CCCC3)c1)c1ccc(Cl)cc1` the “t1/2 [min] (Left)” value was 56.47 min. With `Cc1noc(-c2nc(-c3ccc(Cl)cc3)no2)n1` [Cc1noc(-c2nc(-c3ccc(Cl)cc3)no2)n1] the “t1/2 [min] (Left)” value was 15.6 min. In the case of `O=C1[C@H]2CN(Cc3ccc(Cl)cc3)C[C@H]2C(=O)N1CCc1ccccc1`, the “t1/2 [min] (Left)” value is reported as 47.51 min. For `O=C(Nc1ccc(-c2nnc3n2CCCC3)cc1)c1ccc(Cl)cc1`, the “t1/2 [min] (Left)” value was 117.12 min. For `CN1c2cc(C(=O)Nc3ccc(Cl)cc3)ccc2C(=O)N2CCCCC21` (centres unmarked), the “t1/2 [min] (Left)” value was 83.39 min. For `FC(F)(F)c1ccc2nc([C@H]3CCN(Cc4ccc(Cl)cc4)C3)[nH]c2c1`, the “t1/2 [min] (Left)” value was 56.67 min. In the case of `CN1C(=O)CO[C@H]2CN(Cc3ccc(Cl)cc3)C[C@H]21`, the “t1/2 [min] (Left)” value is reported as 116.11 min. In the case of `COc1ccc(CN2C[C@H]3CN(Cc4ccc(Cl)cc4)CCN3C2=O)cc1`, the “t1/2 [min] (Left)” value is reported as 82.24 min. With `CCN1c2cc(C(=O)Nc3ccc(Cl)cc3)ccc2C(=O)N2CCCCC21` (centres unmarked) the “t1/2 [min] (Left)” value was 25.75 min. For `CCN1c2cc(C(=O)Nc3ccc(Cl)cc3)ccc2C(=O)N2CCCCCC21` (centres unmarked), the “t1/2 [min] (Left)” value was 56.1 min.

Same assay, conditions: male, CD-1, mouse, cytosol, pH 7.4, t1/2 (mean ± SD) (Mouse cytosol), control compounds, 17 plates, 1 μM, 2 mg/mL cytosol, pH 7.4, 37 °C
`Cc1cc(=O)n(-c2ccccc2)n1C` [Antipyrine, reference compound] showed a half-life at 1 μM greater than 2 h.

Same assay, conditions: male, CD-1, mouse, cytosol, pH 7.4, t1/2 category (Mouse cytosol), control compounds, 17 plates
Molecule `Cc1cc(=O)n(-c2ccccc2)n1C` [Antipyrine, reference compound] has a half-life at 1 μM greater than 0.5 h.

Same assay, conditions: male, CD-1, mouse, liver cytosol fractions, pH 7.4, t1/2 [min] (Right), external validation, sheet Mouse, right compound
`O=C1[C@H]2CN(Cc3ccc(Cl)c(F)c3)C[C@H]2C(=O)N1CCc1ccccc1` gave a half-life at 1 μM of 0.621 h. `CCN1c2cc(C(=O)Nc3ccc(Cl)c(F)c3)ccc2C(=O)N2CCCCC21` (centres unmarked) showed a half-life at 1 μM of 0.412 h. With `O=c1[nH]c(N2CCOCC2)nc2c1CCN(Cc1ccc(Cl)c(F)c1)CC2` the half-life at 1 μM was 1.54 h. With `CN1c2cc(C(=O)Nc3ccc(Cl)c(F)c3)ccc2C(=O)N2CCCCCC21` (centres unmarked) the half-life at 1 μM was 0.383 h. Molecule `OCC1(CN2CCCC2)CCN(Cc2ccc(Cl)c(F)c2)CC1` [OCC1(CN2CCCC2)CCN(Cc2ccc(Cl)c(F)c2)CC1] has a half-life at 1 μM of 1.21 h. With `CN(C)c1nc2c(c(=O)[nH]1)CCN(Cc1ccc(Cl)c(F)c1)CC2` the half-life at 1 μM was greater than 2 h. Work on `CN(C1CCOCC1)C1CCN(C(=O)c2cc[nH]n2)CC1` [CN(C1CCOCC1)C1CCN(C(=O)c2cc[nH]n2)CC1] yielded a half-life at 1 μM greater than 2 h. In the case of `O=C(Nc1ccc(-c2nnc3n2CCCC3)cc1)c1cc[nH]n1` [O=C(Nc1ccc(-c2nnc3n2CCCC3)cc1)c1cc[nH]n1], the half-life at 1 μM is reported as greater than 2 h. Molecule `COc1cc(=O)n2c(c1C(=O)Nc1ccc(Cl)c(F)c1)CCCC2` has a half-life at 1 μM of 1.47 h. For `O=C1NC2(CCN(C(=O)c3ccc(Cl)c(F)c3)CC2)CC1c1ccccc1` (centres unmarked), the half-life at 1 μM was 1.43 h. In the case of `CN1c2cc(C(=O)Nc3ccc(Cl)c(F)c3)ccc2C(=O)N2CCCCC21` (centres unmarked), the half-life at 1 μM is reported as 0.524 h. `COc1cccc(C(=O)NCC2CCCN(Cc3cc[nH]n3)C2)c1OC` (centres unmarked) gave a half-life at 1 μM greater than 2 h. `CCN1c2cc(C(=O)Nc3ccc(Cl)c(F)c3)ccc2C(=O)N2CCCCCC21` (centres unmarked) gave a half-life at 1 μM of 0.904 h. Molecule `CN1CCN(c2nc3c(c(=O)[nH]2)CCN(Cc2ccc(Cl)c(F)c2)CC3)CC1` has a half-life at 1 μM greater than 2 h. `COCC1CN(C(C)=O)CC12CCN(Cc1ccc(Cl)c(F)c1)CC2` (centres unmarked) showed a half-life at 1 μM of 1.36 h. With `O=C1OCC2(CCN(Cc3cc[nH]n3)C2)N1CCN1CCOCC1` (centres unmarked) [O=C1OCC2(CCN(Cc3cc[nH]n3)C2)N1CCN1CCOCC1] the half-life at 1 μM was greater than 2 h. In the case of `O=C(Nc1cccc(-c2nnc3n2CCCC3)c1)c1cc[nH]n1` [O=C(Nc1cccc(-c2nnc3n2CCCC3)c1)c1cc[nH]n1], the half-life at 1 μM is reported as greater than 2 h. Work on `CCOc1cc(=O)n2c(c1C(=O)Nc1ccc(Cl)c(F)c1)CCCC2` yielded a half-life at 1 μM of 1.34 h. Molecule `COCC1CN(Cc2ccc(Cl)c(F)c2)CC12CCNCC2` (centres unmarked) [COCC1CN(Cc2ccc(Cl)c(F)c2)CC12CCNCC2] has a half-life at 1 μM greater than 2 h. Molecule `O=C1[C@H]2CN(Cc3ccc(Cl)c(F)c3)C[C@H]2C(=O)N1Cc1ccc2c(c1)OCO2` has a half-life at 1 μM of 0.921 h.

Test: not given
Set-up: method as in PMID 21385103
Conditions: clinical trials terminated; cited from earlier work
In the case of `CC(C)n1nc(-c2cnc(N)nc2-c2ccccc2)ccc1=O` [FK3453], the “levels of parent compound in human plasma” value is listed as “abnormally low levels”.
